From paper PMC11521309, “A novel 4-aminoquinoline chemotype with multistage antimalarial activity and lack of cross-resistance with PfCRT and PfMDR1 mutants” (PLOS Pathogens, 2024)
Several values for one entry are separate records, joined by “and”; a condition that tells them apart may be missing. Equal values may be shown once.

Tests used:
[1] = tested on: P. berghei ookinete formation; assay: In vitro inhibition of ookinete formation (nLuc conversion assay), 24 h; format: cell-based, Plasmodium berghei; details: for % Inhibition of ookinete conversion: single assays
Experimental: To measure the inhibition of gamete conversion into ookinetes, a mutant luciferase-expressing P. berghei line (nLuc) was intraperitoneally injected into BALB/c mice. After 3–4 days, gametocyte-carrying blood samples were collected. In vitro compound testing was carried out by exposing 4 μL of infected blood mixed with 80 μL of culture medium (RPMI-1640 supplemented with 25 mM HEPES, 50 mg/L hypoxanthine, and 1% penicillin/streptomycin/neomycin at pH 8.3) to a range of drug concentrations for 24 hours at 21°C. Following the incubation, 20 μL of nLuc substrate (Nano-Glo Luciferase Assay System, Promega) was added to each well, and luminescence was measured in a luminometer. Increased light emission correlated with nLuc production and subsequent luciferase activity due to in vitro fertilization and ookinete conversion, as luciferase expression in this parasite line is regulated by the CTRP promoter that is ookinete-specific. Conversion inhibition was calculated as the percentage of luciferase activity of drug-exposed wells relative to untreated ones, from which IC50 values were interpolated.

[2] = tested on: PfCRT variants (7G8, 7G8^F145I, 7G8^C350R); assay: SSM-based electrophysiology (SURFE2R N1) of PfCRT proteoliposomes; format: biochemical, Plasmodium falciparum; details: 10 μM, distinct PfCRT isoforms
Experimental: Solid Supported Membrane (SSM)-based electrophysiological measurements were performed using SURFE^2R N1 technology (Nanion Technologies, Inc.) according to published protocols. Briefly, sensors were coated with 1-octadecanethiol (Sigma-Aldrich), rinsed, and 1,2-diphytanoyl-sn-glycero-3-phosphocholine (Avanti Polar Lipids, Inc) was added. Immediately, the sensor was filled with 50 μL non-activating buffer (10 mM Tris-MES, pH 5.5) and PfCRT-containing proteoliposomes (PLs). To generate a K^+ diffusion potential-driven ΔΨ, valinomycin was included at a final concentration of 80 nM [34, 35]. The activating solution (10 mM Tris-MES, pH 5.5 containing either 10 μM CQ, PPQ, LDT-623, pyrimethamine, or atovaquone) was applied using a single-solution exchange protocol (activating buffer incubation for 1 second). Each measurement was repeated at least twice employing at least three different sensors. Peak currents for PfCRT were corrected by subtracting the peak currents recorded with control liposomes (lacking this transporter). To acquire the PfCRT-elicited charge (Coulomb) movement associated with drug transport, the area under the curve (current as a function of time) was analyzed with GraphPad Prism version 10.

[3] = tested on: Hz formation in ABS P. falciparum 3D7 parasites; assay: Cellular heme fractionation assay; format: cell-based, Plasmodium falciparum
Experimental: A heme fractionation assay was used to measure the inhibition of Hz formation in cultured ABS P. falciparum 3D7 parasites as previously described. […] Late trophozoites were harvested after 32 hours of incubation by lysing RBCs with 0.05% saponin followed by multiple washes with 1 × PBS (pH 7.5) to remove any residual traces of hemoglobin. The parasite pellet was resuspended in PBS and the total number of trophozoites isolated was quantified using flow cytometry. Contents of the trophozoite pellet were released by hypotonic lysis and sonication. After centrifugation, treatments with HEPES buffer (pH 7.4), sodium dodecyl sulfate, pyridine, and NaOH, allowed us to separate the fractions corresponding to the different heme species of interest. A microplate reader was employed to measure the UV-visible spectrum of each heme fraction as a Fe(III)heme-pyridine complex. Fractions of undigested hemoglobin, “free” heme, and Hz were quantified using a heme standard curve based on the mass of each heme-Fe species per mature trophozoite (fg/cell), obtained by dividing the total amount of each heme species by the corresponding number of parasites in that fraction as determined by flow cytometry. Statistical comparisons and analyses for trends employed Students’ t-tests (GraphPad Prism version 9).

[4] = 0.5x IC50, 32 h, single replicates
[5] = 0.5–3.0 × IC50 vs untreated control
[6] = 1x IC50, 32 h, single replicates
[7] = 2x IC50, 32 h, single replicates
[8] = 2.5x IC50, 32 h, single replicates
[9] = 3x IC50, 32 h, single replicates

COc1cc2nccc(Nc3cccc(Oc4ccccc4)c3)c2cc1OC [LDT-623]
% Inhibition of ookinete conversion ([1]; Log conc. (uM) 0.39794): 72.78% and 76.99% and 75.53% and 88.24% and 87.02% and 67.23% and 81.09% | % Inhibition of ookinete conversion ([1]; Log conc. (uM) 0.69897): 88.00% and 95.67% and 86.70% and 98.41% and 98.02% and 73.84% and 94.25% | % Inhibition of ookinete conversion ([1]; Log conc. (uM) 1): 99.93% and 99.92% and 99.83% and 99.70% and 99.35% and 98.41% and 99.32% | % Inhibition of ookinete conversion ([1]; Log conc. (uM) -1.70927): 0.00% | IC50 ([1]; Plasmodium berghei, read-out: IC50 inhibition of ookinete formation, mean, N = 7): 1500 nM | PfCRT-specific currents [2]: elicits the same magnitude of currents as CQ and PPQ | %Hb ([3]; 0.5x IC50, 32 h, Mean): 6.49% | %Heme ([3]; 0.5x IC50, 32 h, Mean): 9.94% | %Hemozoin ([3]; 0.5x IC50, 32 h, Mean): 83.57% | Hb Fe (fg/troph) ([3]; 0.5x IC50, 32 h, Mean): 3.40 fg/troph | Heme Fe (fg/troph) ([3]; 0.5x IC50, 32 h, Mean): 5.28 fg/troph | Hemozoin Fe (fg/troph) ([3]; 0.5x IC50, 32 h, Mean): 44.40 fg/troph | Total Fe (fg/troph) ([3]; 0.5x IC50, 32 h, Mean): 54.33 fg/troph | %Hb [3, 4]: 5.0225% and 6.9078% and 7.3751% and 6.6526% | %Heme [3, 4]: 10.3876% and 10.3966% and 9.0005% and 9.9788% | %Hemozoin [3, 4]: 84.5899% and 82.6957% and 83.6245% and 83.3686% | Hb Fe (fg/troph) [3, 4]: 2.7844 fg/troph and 3.6098 fg/troph and 3.8007 fg/troph and 3.8647 fg/troph | Heme Fe (fg/troph) [3, 4]: 5.7588 fg/troph and 5.4329 fg/troph and 4.6383 fg/troph and 5.7970 fg/troph | Hemozoin Fe (fg/troph) [3, 4]: 46.8963 fg/troph and 43.2142 fg/troph and 43.0950 fg/troph and 48.4315 fg/troph | Total Fe (fg/troph) [3, 4]: 55.44 fg/troph and 52.26 fg/troph and 51.53 fg/troph and 58.09 fg/troph | effect on Hz levels [3, 5]: significant concentration-dependent decreases in the levels of Hz | effect on undigested Hb [3, 5]: augmented percentage of undigested Hb was observed starting at 0.5 × IC50 | effect on “free” heme [3, 5]: statistically significant increase in “free” heme in a concentration-dependent manner | %Hb ([3]; 1x IC50, 32 h, Mean): 7.02% | %Heme ([3]; 1x IC50, 32 h, Mean): 10.55% | %Hemozoin ([3]; 1x IC50, 32 h, Mean): 82.43% | Hb Fe (fg/troph) ([3]; 1x IC50, 32 h, Mean): 3.49 fg/troph | Heme Fe (fg/troph) ([3]; 1x IC50, 32 h, Mean): 5.57 fg/troph | Hemozoin Fe (fg/troph) ([3]; 1x IC50, 32 h, Mean): 44.22 fg/troph | Total Fe (fg/troph) ([3]; 1x IC50, 32 h, Mean): 54.30 fg/troph | %Hb [3, 6]: 4.1032% and 6.0183% and 9.3168% and 8.6327% | %Heme [3, 6]: 11.3186% and 11.3158% and 8.7646% and 10.7959% | %Hemozoin [3, 6]: 84.5783% and 82.6659% and 81.9186% and 80.5714% | Hb Fe (fg/troph) [3, 6]: 2.0348 fg/troph and 3.3626 fg/troph and 5.0638 fg/troph and 4.9539 fg/troph | Heme Fe (fg/troph) [3, 6]: 5.6130 fg/troph and 6.3225 fg/troph and 4.7637 fg/troph and 6.1953 fg/troph | Hemozoin Fe (fg/troph) [3, 6]: 41.9435 fg/troph and 46.1884 fg/troph and 44.5239 fg/troph and 46.2360 fg/troph | Total Fe (fg/troph) [3, 6]: 49.59 fg/troph and 55.87 fg/troph and 54.35 fg/troph and 57.39 fg/troph | %Hb ([3]; 2x IC50, 32 h, Mean): 5.86% | %Heme ([3]; 2x IC50, 32 h, Mean): 12.64% | %Hemozoin ([3]; 2x IC50, 32 h, Mean): 81.50% | Hb Fe (fg/troph) ([3]; 2x IC50, 32 h, Mean): 3.50 fg/troph | Heme Fe (fg/troph) ([3]; 2x IC50, 32 h, Mean): 6.66 fg/troph | Hemozoin Fe (fg/troph) ([3]; 2x IC50, 32 h, Mean): 43.79 fg/troph | Total Fe (fg/troph) ([3]; 2x IC50, 32 h, Mean): 54.83 fg/troph | %Hb [3, 7]: 4.9454% and 8.0340% and 6.4023% and 4.0696% | %Heme [3, 7]: 13.6029% and 11.9660% and 11.4824% and 13.5021% | %Hemozoin [3, 7]: 81.4516% and 80.0000% and 82.1153% and 82.4284% | Hb Fe (fg/troph) [3, 7]: 2.6441 fg/troph and 4.5716 fg/troph and 3.2970 fg/troph and 2.3379 fg/troph | Heme Fe (fg/troph) [3, 7]: 7.2727 fg/troph and 6.8090 fg/troph and 5.9132 fg/troph and 7.7566 fg/troph | Hemozoin Fe (fg/troph) [3, 7]: 43.5476 fg/troph and 45.5226 fg/troph and 42.2872 fg/troph and 47.3530 fg/troph | Total Fe (fg/troph) [3, 7]: 53.46 fg/troph and 56.90 fg/troph and 51.50 fg/troph and 57.45 fg/troph | %Hb ([3]; 2.5x IC50, 32 h, Mean): 6.89% | %Heme ([3]; 2.5x IC50, 32 h, Mean): 13.61% | %Hemozoin ([3]; 2.5x IC50, 32 h, Mean): 79.50% | Hb Fe (fg/troph) ([3]; 2.5x IC50, 32 h, Mean): 3.48 fg/troph | Heme Fe (fg/troph) ([3]; 2.5x IC50, 32 h, Mean): 7.40 fg/troph | Hemozoin Fe (fg/troph) ([3]; 2.5x IC50, 32 h, Mean): 43.37 fg/troph | Total Fe (fg/troph) ([3]; 2.5x IC50, 32 h, Mean): 54.23 fg/troph | %Hb [3, 8]: 6.2660% and 6.4635% and 6.5388% and 8.2899% | %Heme [3, 8]: 15.0745% and 13.6837% and 12.1024% and 13.5701% | %Hemozoin [3, 8]: 78.6596% and 79.8529% and 81.3587% and 78.1400% | Hb Fe (fg/troph) [3, 8]: 3.4040 fg/troph and 3.6534 fg/troph and 3.3950 fg/troph and 4.4889 fg/troph | Heme Fe (fg/troph) [3, 8]: 8.1894 fg/troph and 7.7345 fg/troph and 6.2837 fg/troph and 7.3481 fg/troph | Hemozoin Fe (fg/troph) [3, 8]: 42.7326 fg/troph and 45.1360 fg/troph and 42.2421 fg/troph and 42.3122 fg/troph | Total Fe (fg/troph) [3, 8]: 54.33 fg/troph and 56.52 fg/troph and 51.92 fg/troph and 54.15 fg/troph | %Hb ([3]; 3x IC50, 32 h, Mean): 8.06% | %Heme ([3]; 3x IC50, 32 h, Mean): 18.59% | %Hemozoin ([3]; 3x IC50, 32 h, Mean): 73.35% | Hb Fe (fg/troph) ([3]; 3x IC50, 32 h, Mean): 4.13 fg/troph | Heme Fe (fg/troph) ([3]; 3x IC50, 32 h, Mean): 9.47 fg/troph | Hemozoin Fe (fg/troph) ([3]; 3x IC50, 32 h, Mean): 38.59 fg/troph | Total Fe (fg/troph) ([3]; 3x IC50, 32 h, Mean): 52.57 fg/troph | %Hb [3, 9]: 7.5148% and 8.7626% and 7.4537% and 8.4952% | %Heme [3, 9]: 20.9692% and 17.6208% and 15.9272% and 19.8532% | %Hemozoin [3, 9]: 71.5161% and 73.6166% and 76.6190% and 71.6515% | Hb Fe (fg/troph) [3, 9]: 3.8296 fg/troph and 4.6352 fg/troph and 3.9291 fg/troph and 4.5643 fg/troph | Heme Fe (fg/troph) [3, 9]: 10.6861 fg/troph and 9.3209 fg/troph and 8.3957 fg/troph and 10.6667 fg/troph | Hemozoin Fe (fg/troph) [3, 9]: 36.4452 fg/troph and 38.9409 fg/troph and 40.3879 fg/troph and 38.4969 fg/troph | Total Fe (fg/troph) [3, 9]: 50.96 fg/troph and 52.90 fg/troph and 52.71 fg/troph and 53.73 fg/troph
